Where two headings read alike, the source gives them in different places.

Data set [1] relates to lymphocytes from the spleen of Balb/c and CBA mice. The data set can be described thus: TEST L: Murine Mixed Lymphocyte Reaction. It counts as cell-based. Particulars: Mus musculus, 120 h, thymidine incorporation, 5 days, hydrogen-oxalate salt. The procedure: TEST L: Murine Mixed Lymphocyte Reaction
Ca. 0.5×10^6 lymphocytes from the spleen of female (8-10 weeks) Balb/c mice are incubated for 5 days in 0.2 ml cell growth medium with ca. 0.5×10^6 lymphocytes from the spleen of female (8-10 weeks) CBA mice. Test substance is added to the medium at various concentrations. Activity is assessed by ability to suppress proliferation associated DNA synthesis as determined by incorporation of radiolabelled thymidine.
On the technique in general: Dividing cells build labelled thymidine or BrdU into new DNA.

Data set [2] deals with bacterial endotoxin (LPS) induced airways obstruction and lethality. The data set can be described thus: TEST E: Bacterial Endotoxin [LPS] Induced Lethality in the Guinea Pig. It counts as in vivo. The conditions noted are these: 100/μg/kg/min.; hydrogen-oxalate salt. As for the experimental part:
TEST E: Bacterial Endotoxin [LPS] Induced Lethality in the Guinea Pig
Guinea-pigs are anesthetized by intraperitoneal injection of sodium phenobarbitone (100 mg/kg.) supplemented with sodium pentobarbitone (30 mg/kg) and paralyzed by intramuscular injection of gallamine (10 mg/kg). Animals are ventilated (8 ml/kg, 1 Hz) with a mixture of air and oxygen (40:60, v/v) via a tracheal cannula. Ventilation is monitored at the trachea by a pneumotachograph connected to a differential pressure transducer. […] Blood pressure and heart rate are recorded from the carotid artery using a pressure transducer and a cannula is introduced into the right jugular vein to allow intravenous infusion of test substance min prior to and concomitantly with infusion of LPS at a constant rate (3.0 ml/hr to give 10 mg/kg/hr) from an infusion pump. The left jugular vein is cannulated for administration of (±) propranolol (1 mg/kg) injected as an intravenous bolus. […] Experimental data is stored continuously and, on termination of an experiment, experimental traces or processed data are plotted.
Infusion of [±propanolol] ensures consistent susceptibility to LPS. In anesthetized animals pre-treated with [±] propanalol, infusion of LPS in the above model induces progressive airway obstruction. Death consequential to endotoxin shock usually occurs within ca. 1 hr of terminating LPS infusion.

The subject of data set [3] is SRS-A induced bronchoconstriction. Nature of the data set: TEST H experiment 2: Suppression of SRS-A Induced Bronchoconstriction (tracheal instillation, inhaled ovalbumin). It counts as in vivo, guinea pig (Dunkin-Hartley). Particulars: Cavia porcellus, i.t., hydrogen-oxalate salt. The procedure: TEST H: Suppression of SRS-A Induced Bronchoconstriction
Guinea pigs (Dunkin-Hartley, male, 400-600 g) are anesthethized with phenobarbital (100 mg/kg i.p.) and pentobarbital (30 mg/kg i.p.) and paralyzed with gallamine (100 mg/kg i.m.) Animals are ventilated via a tracheal cannula (8 ml/kg, 1 Hz) with a mixture of air and oxygen (45:55 v/v). Blood pressure and heart rate are recorded at the carotid artery. Ventilation is monitored by a Fleisch flow transducer in line with the inspiratory circuit. When making measurements of flow, coincident pressure changes in the thorax are monitored directly via an intrathoracic trochar, permitting display of differential pressure relative to the trachea. From this information in relation to flow and differential pressure, resistance [R1 ] and compliance [Cdyn ] are calculated using a digital respiratory analyzer for each respiratory cycle.
Test animals are passively sensitized 24 hrs. prior to testing by administration of homologous anti-ovalbumin antiserum (1 ml i.v.). […] Allergen challenge is achieved by administration of ovalbumin (OA) and the resultant bronchoconstrictor response is used as a functional read-out of SRS-A activity.
2) In the second, animals are challenged with OA (1.0 or 1.8 mg/ml inhaled over 60 breaths) and the effect of test compound, administered at varying dosage directly into the lung by tracheal instillation, is measured.

Data set [4] concerns human PDE IV (neutrophils). Nature of the data set: TEST A: Human PDE Isoenzyme Inhibition Assay, type IV. The class given is biochemical. The source says:
C2 H5 OH. For pharmacological experiments it should be diluted at least 1:10,000.]
TEST A: Human PDE Isoenzyme Inhibition Assay
All isoenzyme preparations are derived from human sources. Type III and IV preparations are obtained taking advantage of the predominance of type III isoenzymes in platelets and of type IV isoenzymes in neutrophils applying the following techniques:
Neutrophils (type IV) and platelets (types II and III) are obtained from human blood and sonicated (Branson probe, 4×15 sec.). Human lung (types I and V) is obtained from patients undergoing surgery and homogenized using a Polytron homogenizer (two bursts of 30 sec).
Isoenzyme preparations: PDE III and IV (substrate cAMP 1 μM) preparations consist of low-speed supernates of the platelet and neutrophil homogenates, respectively.

Data set [5] can be described thus: stock solution of the hydrogen-oxalate salt. The class given is physicochemical. Particulars: 10% Tween in 80% abs. C2H5OH. As for the experimental part:
[All experiments described below are suitably done using the hydrogen-oxalate salt of the test compound, e.g. compound of example 1. In the case of the example 1 compound a stable 30 mM stock solution of the hydrogen-oxalate salt may be prepared with 10% Tween in 80% abs. C2 H5 OH. For pharmacological experiments it should be diluted at least 1:10,000.]

Data set [6] concerns methacholine induced bronchoconstriction. The data set can be described thus: TEST J: Suppression of Methacholine (MeCH) Induced Broncho-Constriction in the Rhesus Monkey. It counts as in vivo. The conditions noted are these: hydrogen-oxalate salt. As for the experimental part:
TEST J: Suppression of Methacholine (MeCH) Induced Broncho-Constriction in the Rhesus Monkey
Male rhesus monkeys (body weight 10.3-13.2 kg) are anesthetized with ketamine (20 mg/kg i.m., initial) and maintained with thiopental (8 mg/kg/h i.v.) via an indwelling catheter in the left saphenous vein, throughout the experimental procedure. Animals are allowed to breathe spontaneously, and are placed in the left lateral incumbent position. The larynx, eppiglottis and pharynx are anesthetized (topical xylocaine) allowing introduction and placement of a cuffed 4.5 mm pediatric endotracheal tube.
MeCH is administered as an aerosol (saline vehicle: aerosol generated by a nebulizer operated under an airflow of 6 l/min, mean particle size of 3.5 μm) with a 2 minute exposure, tidal breathing. All tests employ a 0.6 mg/ml solution or 2.5 mg/ml solution in the case of poor MeCH responders. MeCH bronchoconstrictor tests are spaced 30 min apart, with administration of test substance (in a lactose vehicle suspension, 1 mg/ml, 1 ml administered under bronchoscopic control, 1 cm above the carina) 15 min prior to MeCH challenge.
Test substance is administered in a cumulative manner. Bronchodilator activity is estimated as the % inhibition of bronchoconstrictor response to MeCH on resistance.

Data set [7] in a line: hemodynamics, plasma glucose and tolerability in conscious dogs. It counts as in vivo, dog. Particulars: hydrogen-oxalate salt.
Setting [8] is: up to 0.3 mg/kg i.v. or 0.6 mg/kg p.o.

Take `CCc1cc2cc(OCCO)c(OC)cc2c(-c2cc(OC(C)C)cc(OC(C)C)c2)n1` [Example 1, 1-(3,5-diisopropoxyphenyl)-3-ethyl-6-(2-hydroxyethoxy)-7-methoxy-isoauinoline]: the IC50 (usually the concentration at which inhibition is half-maximal) in data set [1] was 12 ± 9 nM. In data set [2], the “lethality (TEST E)” value is reported as “no animals dying” and the “protection (TEST E)” value is given as “COMPLETE PROTECTION”. Further, the ED50 in data set [3] (ovalbumin 1 mg/ml, read-out: ED50 vs. ovalbumin @1 mg/ml) was found to be 5 µg/kg. Besides, the ED50 in data set [3] (ovalbumin 1.8 mg/ml, read-out: ED50 vs. ovalbumin @1.8 mg/ml) stood at 50 µg/kg. Also, the 50% inhibitory concentration (IC50) in data set [4] (TEST A, 1 μM [3H]-cyclic AMP substrate, hydrogen-oxalate salt) came to 2.9 ± 1.2 nM. The “fold greater activity in inhibiting the type IV isoenzyme than other isoenzyme preparations tested” value in data set [4] (type IV vs other isoenzyme preparations, hydrogen oxalate salt) is reported as “at least 180 fold”. Moreover, in data set [5], the stable stock solution stood at 30 mM. Also, the ED20 in data set [6] (Macaca mulatta, inhaled or nasal, MeCH aerosol, test substance in lactose suspension) was 0.0414 ± 0.0099 µg/kg. Moreover, the “potency less than that of Albuterol (TEST J)” value in data set [6] (times less potent than Albuterol) is on record as “ca. 3.5 ×”. Further, the tolerability result in data set [7] (all dosages) is “generally well tolerated”. Also, in data set [7] (setting [8]), the “change in heart rate” value is “no or only minimal change”, the “change in mean arterial pressure” value is “no or only minimal change” and the “change in plasma glucose concentrations” value was “no or only minimal change”.

These data come from US5747506A, “Isoquinoline compounds, compositions containing them and their pharmaceutical uses” (Novartis AG, priority 1993, dated 1998).
